Data taken from the NIST ThermoML archive (doi:10.1007/s10765-013-1526-8).
Numbers after ± are expanded uncertainties.

Experiment: xn = mol fraction of the nth substance listed
Conditions: 101 kPa, Liquid; for speed of sound: Sing-around technique in a fixed-path interferometer

CCCCC(CC)CO (stereo not given) [2-ethyl-1-hexanol] + c1ccccc1
Conditions | mass density, 303.15 K [kg/m3] | mass density, 308.15 K [kg/m3] | speed of sound, 303.15 K [m/s] | speed of sound, 308.15 K [m/s] | viscosity, 303.15 K [mPa·s] | viscosity, 308.15 K [mPa·s]
x2 = 0 | 825.39 ± 0.83 | 821.68 ± 0.84 | 1301 ± 10 | 1283 ± 10 | 7.144 ± 0.57 | 6.09 ± 0.5
x2 = 0.0606 | 826.11 ± 0.82 | 822.28 ± 0.84 | 1297 ± 10 | 1278 ± 10 | 5.969 ± 0.5 | 5.084 ± 0.44
x2 = 0.1203 | 826.92 ± 0.82 | 823.05 ± 0.83 | 1292 ± 10 | 1273 ± 10 | 4.984 ± 0.43 | 4.22 ± 0.37
x2 = 0.1798 | 827.89 ± 0.82 | 823.96 ± 0.83 | 1287 ± 10 | 1269 ± 10 | 4.114 ± 0.36 | 3.49 ± 0.31
x2 = 0.2384 | 828.98 ± 0.81 | 825.01 ± 0.82 | 1282 ± 10 | 1265 ± 10 | 3.409 ± 0.3 | 2.903 ± 0.26
x2 = 0.3132 | 830.66 ± 0.8 | 826.61 ± 0.82 | 1275 ± 10 | 1260 ± 10 | 2.624 ± 0.24 | 2.272 ± 0.21
x2 = 0.3915 | 832.74 ± 0.8 | 828.57 ± 0.81 | 1269 ± 10 | 1255 ± 10 | 2.002 ± 0.18 | 1.741 ± 0.16
x2 = 0.4515 | 834.63 ± 0.79 | 830.4 ± 0.8 | 1264 ± 10 | 1252 ± 10 | 1.621 ± 0.15 | 1.451 ± 0.14
x2 = 0.526 | 837.35 ± 0.78 | 832.98 ± 0.79 | 1258 ± 10 | 1248 ± 10 | 1.305 ± 0.12 | 1.174 ± 0.11
x2 = 0.5849 | 839.78 ± 0.77 | 835.32 ± 0.78 | 1255 ± 10 | 1245 ± 10 | 1.127 ± 0.11 | 1.02 ± 0.1
x2 = 0.6557 | 843.22 ± 0.76 | 838.62 ± 0.77 | 1252 ± 10 | 1242 ± 10 | 0.953 ± 0.095 | 0.881 ± 0.088
x2 = 0.726 | 847.09 ± 0.75 | 842.36 ± 0.76 | 1252 ± 10 | 1240 ± 10 | 0.852 ± 0.086 | 0.785 ± 0.08
x2 = 0.7937 | 851.36 ± 0.73 | 846.49 ± 0.75 | 1253 ± 10 | 1239 ± 10 | 0.758 ± 0.078 | 0.713 ± 0.074
x2 = 0.8592 | 856.01 ± 0.72 | 850.99 ± 0.73 | 1256 ± 10 | 1240 ± 10 | 0.701 ± 0.073 | 0.659 ± 0.069
x2 = 0.9299 | 861.77 ± 0.7 | 856.56 ± 0.71 | 1264 ± 10 | 1243 ± 10 | 0.654 ± 0.069 | 0.605 ± 0.065
